Data reported in US20110105515A1, “TARGETING THE ONCOPROTEIN NUCLEOPHOSMIN” (President and Fellows of Harvard College, priority 2007, published 2011).

Columns and labels:
RXF 393 = RXF 393 (Renal Cancer), 48 hours, SRB
NCI/ADR-RES = NCI/ADR-RES (Breast Cancer), 48 hours, SRB
SF-539 = SF-539 (CNS Cancer), 48 hours, SRB
T-47D = T-47D (Breast Cancer), 48 hours, SRB
SF-295 = SF-295 (CNS Cancer), 48 hours, SRB
OVCAR-4 = OVCAR-4 (Ovarian Cancer), 48 hours, SRB
M14 = M14 (Melanoma), 48 hours, SRB
MDA-MB-468 = MDA-MB-468 (Breast Cancer), 48 hours, SRB
NCI-H460 = NCI-H460 (Non-Small Cell Lung Cancer), 48 hours, SRB
NCI-H522 = NCI-H522 (Non-Small Cell Lung Cancer), 48 hours, SRB
HCT-15 = HCT-15 (Colon Cancer), 48 hours, SRB
SN12C = SN12C (Renal Cancer), 48 hours, SRB
MCF7 = MCF7 (Breast Cancer), 48 hours, SRB
UO-31 = UO-31 (Renal Cancer), 48 hours, SRB
DU-145 = DU-145 (Prostate Cancer), 48 hours, SRB
LOX IMVI = LOX IMVI (Melanoma), 48 hours, SRB
UACC-257 = UACC-257 (Melanoma), 48 hours, SRB
U251 = U251 (CNS Cancer), 48 hours, SRB
MOLT-4 = MOLT-4 (Leukemia), 48 hours, SRB
MDA-MB-435 = MDA-MB-435 (Breast Cancer), 48 hours, SRB
OVCAR-8 = OVCAR-8 (Ovarian Cancer), 48 hours, SRB
BT-549 = BT-549 (Breast Cancer), 48 hours, SRB
SNB-19 = SNB-19 (CNS Cancer), 48 hours, SRB
HS578T = HS578T (Breast Cancer), 48 hours, SRB
COLO 205 = COLO 205 (Colon Cancer), 48 hours, SRB
SR = SR (Leukemia), 48 hours, SRB
HCT-116 = HCT-116 (Colon Cancer), 48 hours, SRB
HCC-2998 = HCC-2998 (Colon Cancer), 48 hours, SRB
786-0 = 786-0 (Renal Cancer), 48 hours, SRB
SW-620 = SW-620 (Colon Cancer), 48 hours, SRB
PC-3 = PC-3 (Prostate Cancer), 48 hours, SRB

`CC1(C)C=Cc2c(ccc3c4c(n(O)c23)C(C)(C)C2CC35CCCN3C(=O)C2(NC5=O)C4SCC(NC(=O)CCC(N)C(=O)O)C(=O)NCC(=O)O)O1` (stereo not shown) [Glutathione Adduct] showed a GI50 (RXF 393) of 829 nM, a TGI (RXF 393) of 1750 nM and a CC50 (RXF 393; read-out: LC50) of 3690 nM. For the same compound, the GI50 (NCI/ADR-RES) was 3940 nM, the TGI (NCI/ADR-RES) was 14000 nM and the CC50 (NCI/ADR-RES; read-out: LC50) was 44700 nM. The CC50 (HL-60(TB)) was 13300 nM, the GI50 (HL-60(TB)) was 321 nM and the TGI (HL-60(TB)) was 1620 nM. It also gave a GI50 (SF-539) of 838 nM, a TGI (SF-539) of 2030 nM and a CC50 (SF-539; read-out: LC50) of 4900 nM. It also gave a GI50 (T-47D) of 319 nM, a TGI (T-47D) of 2470 nM and a CC50 (T-47D; read-out: LC50) of 46000 nM. For the same compound, the GI50 (SF-295) was 1450 nM, the TGI (SF-295) was 6580 nM and the CC50 (SF-295; read-out: LC50) was 24400 nM. For the same compound, the GI50 (OVCAR-4) was 742 nM, the TGI (OVCAR-4) was 2490 nM and the CC50 (OVCAR-4; read-out: LC50) was 10100 nM. For the same compound, the GI50 (M14) was 996 nM, the TGI (M14) was 2630 nM and the CC50 (M14; read-out: LC50) was 11200 nM. For the same compound, the GI50 (MDA-MB-468) was 674 nM, the TGI (MDA-MB-468) was 1620 nM and the GI50 (NCI-H460) was 1110 nM. The TGI (NCI-H460) was 2410 nM, the CC50 (NCI-H460; read-out: LC50) was 23200 nM and the GI50 (NCI-H522) was 727 nM. It also gave a TGI (NCI-H522) of 1950 nM, a CC50 (NCI-H522; read-out: LC50) of 6290 nM and a GI50 (HCT-15) of 840 nM. For the same compound, the TGI (HCT-15) was 2040 nM, the CC50 (HCT-15; read-out: LC50) was 4930 nM and the GI50 (SN12C) was 1510 nM. It also gave a TGI (SN12C) of 5640 nM, a CC50 (SN12C; read-out: LC50) of 17800 nM and a GI50 (MCF7) of 840 nM. For the same compound, the TGI (MCF7) was 3180 nM, the CC50 (MCF7; read-out: LC50) was 33600 nM and the GI50 (UO-31) was 779 nM. The TGI (UO-31) was 4070 nM, the CC50 (UO-31; read-out: LC50) was 15000 nM and the GI50 (DU-145) was 1160 nM. The TGI (DU-145) was 2650 nM, the CC50 (DU-145; read-out: LC50) was 7880 nM and the GI50 (LOX IMVI) was 806 nM. The TGI (LOX IMVI) was 1560 nM, the GI50 (UACC-257) was 1070 nM and the TGI (UACC-257) was 5430 nM. For the same compound, the CC50 (UACC-257; read-out: LC50) was 17300 nM, the GI50 (U251) was 819 nM and the TGI (U251) was 1970 nM. For the same compound, the CC50 (U251; read-out: LC50) was 4760 nM, the GI50 (MOLT-4) was 425 nM and the TGI (MOLT-4) was 1750 nM. It also gave a CC50 (MOLT-4; read-out: LC50) of 20600 nM, a GI50 (MDA-MB-435) of 1100 nM and a TGI (MDA-MB-435) of 5200 nM. For the same compound, the CC50 (MDA-MB-435; read-out: LC50) was 22000 nM, the GI50 (OVCAR-8) was 1600 nM and the TGI (OVCAR-8) was 6380 nM. The CC50 (OVCAR-8; read-out: LC50) was 29800 nM, the GI50 (BT-549) was 923 nM and the TGI (BT-549) was 2700 nM. The CC50 (BT-549; read-out: LC50) was 10500 nM, the GI50 (SNB-19) was 1430 nM and the TGI (SNB-19) was 6240 nM. It also gave a CC50 (SNB-19; read-out: LC50) of 18700 nM, a GI50 (HS578T) of 1110 nM and a TGI (HS578T) of 3790 nM. The CC50 (HS578T; read-out: LC50) was > 50000 nM, the GI50 (COLO 205) was 649 nM and the TGI (COLO 205) was 15100 nM. It also gave a CC50 (COLO 205; read-out: LC50) of 3510 nM, a GI50 (SR) of 228 nM and a TGI (SR) of 1280 nM. The CC50 (SR; read-out: LC50) was 16700 nM, the GI50 (HCT-116) was 871 nM and the TGI (HCT-116) was 1760 nM. For the same compound, the CC50 (HCT-116; read-out: LC50) was 3550 nM, the GI50 (HCC-2998) was 759 nM and the TGI (HCC-2998) was 1510 nM. For the same compound, the CC50 (HCC-2998; read-out: LC50) was 3020 nM, the GI50 (786-0) was 1120 nM and the TGI (786-0) was 2440 nM. It also gave a CC50 (786-0; read-out: LC50) of 6030 nM, a GI50 (SW-620) of 713 nM and a TGI (SW-620) of 1500 nM. It also gave a CC50 (SW-620; read-out: LC50) of 3810 nM, a GI50 (PC-3) of 906 nM and a TGI (PC-3) of 2590 nM. The CC50 (PC-3; read-out: LC50) was 11600 nM.
